Structures can show the parent of a compound that is named as a salt. Where two headings read alike, the source gives them in different places.

The subject of experiment [1] is alkaline protease from shipworm bacterium. Description: Inhibition of alkaline protease: preincubation with inhibitor, then azocasein assay. It counts as biochemical, bacterial symbiont of the shipworm Psiloteredo healdi. The note with it: for Activity (%): assay 42° C., pH 9.0, 0.2M NaCl. As for the experimental part: The protease purification was monitored by assaying for proteolytic activity and protein concentration after each step. Proteolytic activity was determined in duplicate assays employing azocasein for the substrate, as described by Cotta et al. [Applied Environmental Microbiology, vol. 52, 51-58 (1986)]. Units represent μg of azocasein digested per hour. Protein concentrations were determined by the method of Bradford [Analytical Biochemistry, […] (1976)] with bovine serum albumin as a standard.
Several compounds known to inhibit various proteases were examined for their effect on the activity of the purified enzyme from Example 2 (Table II). The protease was incubated prior to assay for 1 hr at 25° C. All assays were measured at 42° C. and pH 9.0 in 0.2M NaCl buffered with 100 mM bis Tris propane.

The test system is the same in experiment [2]. Described as above. It is filed as biochemical, bacterial symbiont of the shipworm Psiloteredo healdi. The note with it: inhibitor 0.1%; preincubation 1 hr at 42° C.; assay 42° C., pH 9.0, 0.2M NaCl.
The mark [3] stands for this setting: inhibitor 0.1 mM, preincubated 1 hr at 25° C., 100% = 154 units/ml.
[4] abbreviates: inhibitor 10 mM, preincubated 1 hr at 25° C., 100% = 154 units/ml.
Setting [5] is: inhibitor 1 mM, preincubated 1 hr at 25° C., 100% = 154 units/ml.

With `[Cl][Cu][Cl]` [CuCl2], the “Activity (%)” value in experiment [1] (setting [3]) came to 97%; in experiment [1] (setting [4]) it was 94%.
With `O=C(O)CN(CCN(CC(=O)O)CC(=O)O)CC(=O)O` [EDTA (disodium salt), EDTA], the “effect on the activity of the protease (in words)” value (“effect on the activity” for short) in experiment [1] is “little effect”. The “Activity (%)” value in experiment [1] (setting [4]) was determined as 102%.
Turning to `[Cl][Hg][Cl]` [HgCl2], the “Activity (%)” value was 66% in experiment [1] (setting [3]) and 8% in experiment [1] (setting [4]).
For `NC(=O)CI` [Iodoacetamide], in experiment [1], the “effect on the activity” value is listed as “little effect”. The “Activity (%)” value in experiment [1] (setting [3]) is reported as 102%; in experiment [1] (setting [5]) it was 102%; in experiment [1] (setting [4]), 100%.
Consider `Cc1ccc2ccc3ccc(C)nc3c2n1` [Neocuproine HCl], for which the “effect on the activity” value in experiment [1] is reported as “little effect”. In addition, the “Activity (%)” value in experiment [1] (setting [4]) is 99%.
Take `O=S(=O)(F)Cc1ccccc1` [Phenylmethanesulphonyl fluoride]: the “effect on the activity” value in experiment [1] was “does not inhibit activity”. In addition, the “Activity (%)” value in experiment [1] (setting [3]) is listed as 93%; in experiment [1] (setting [5]), 98%; in experiment [1] (setting [4]), 102%.
With `O.O.O.O.[Na+].[O-]B1OO1` [Sodium perborate tetrahydrate], the “Activity (%)” value was 119% in experiment [1] (inhibitor 0.1%, preincubation 1 hr at 25° C.) and 117% in experiment [2]. The “effect on the activity” value was “protease activity stimulation” in experiment [1] (listed as perborate), “little effect” in experiment [1] (listed as sodium perborate) and “apparent enhancement of protease activity” in experiment [1] (listed as sodium perborate tetrahydrate).
As to `Cc1ccc(S(=O)(=O)N[C@@H](CCCCN)C(=O)CCl)cc1` [TLCK, tosyl-1-lysine chloromethyl ketone], in experiment [1], the “effect on the activity” value is “significantly reduces the activity at low concentrations and abolishes it at high concentrations”. Moreover, the “Activity (%)” value worked out at 47% in experiment [1] (setting [3]), 20% in experiment [1] (setting [5]) and 7% in experiment [1] (setting [4]).
Take `Cc1ccc(S(=O)(=O)N[C@@H](Cc2ccccc2)C(=O)CCl)cc1` [TPCK, tosylamide phenylethyl chloromethyl ketone]: the “effect on the activity” value in experiment [1] is listed as “unaffected”. The figures for the “Activity (%)” value in experiment [1] (setting [3]), in experiment [1] (setting [5]) and in experiment [1] (setting [4]) were 94%, 99% and 100%, respectively.
Turning to `NCCCCCC(=O)O` [ε-Amino-n-caproic acid], the “effect on the activity” value in experiment [1] is recorded as “unaffected”. The “Activity (%)” value in experiment [1] (inhibitor 100 μg, preincubated 1 hr at 25° C.) turned out to be 101%; in experiment [1] (inhibitor 500 μg, preincubated 1 hr at 25° C.), 99%.

The values are drawn from US5312749A, “Industrial alkaline protease from shipworm bacterium” (The United States of America as represented by the …, priority 1992, dated 1994).
